Source: patent publication US20240216407A1, “NOVEL POLYPHENOL COMPOUND” (NABOCUL COSMETICS CO., LTD., priority 2021, published 2024)

Test system: collagen gene (COL1A1 gene)
Assay: Promotion of collagen gene (COL1A1) mRNA expression in HaCaT cells, real-time PCR (QPCR)
Format: cell-based, human
Conditions: for increase of the expression level of the collagen gene (COL1A1 mRNA) compared to the control: 24 hours culture
Protocol: The OLANDU obtained in Example 2 was used to examine the effect of promoting the expression of collagen gene (COL1A1 gene) in a HaCaT cell that is a human epidermis-derived keratinocyte cell line.
First, the HaCaT cells were cultured in a DMEM medium (containing 10% FBS, 100 U/mL penicillin and […] streptomycin) in the presence of 5% CO2 at 37° C. and saturated humidity. Next, the HaCaT cells adjusted to a cell concentration of 5×10^5 cells/mL were seeded in each well of a 6-well cell culture plate and cultured in a CO2 incubator (5% CO2, 37° C.) for 24 hours. Thereafter, the OLANDU isolated in Example 2 was added to each well to provide a final concentration different from each other. Specifically, the final concentrations of OLANDU in the HaCaT cell culture medium were 1 μM, 5 μM, 10 μM, 50 μM and 100 μM, respectively. A well to which the OLANDU had not been added was used as a control (0 μM). After addition, they were subjected to culture for 24 hours.
After completion of the culture, the HaCaT cells were collected from each well, and total RNA was extracted with an RNA extraction reagent (RNAzol®, a product available from Molecular Research Center, Inc.). The concentration of total RNA obtained by extraction was confirmed with an ultratrace spectrophotometer (NanoDrop; a product available from Thermo Fisher Scientific). To this total RNA were added an oligo dT primer, a dNTP Mix, a 5×1st strand buffer, an RNase inhibitor, DTT and an M-MLV reverse transcriptase to synthesize cDNA from the total RNA. This cDNA was subjected to real-time PCR (QPCR) to measure the expression level of the collagen gene.
QPCR was performed with a commercially available QPCR reagent kit and QPCR measurement device (LightCycler® 480; a product available from Roche Diagnostics K. K.), and the detection was performed with SYBR® Green that is a double-stranded DNA-binding fluorescent dye. The COL1A1 gene encoding the α1 chain of type I collagen was selected as a target gene, and the primers of SEQ ID NOs: 1 and 2 shown in Table 1 below were used as QPCR primers. […]

## COc1ccc(/C=C/C(=O)OC[C@H]2O[C@H](OC(=O)c3cc(O)c(O)c(O)c3)[C@H](O)[C@@H](O)[C@@H]2O)cc1O [OLANDU]
OLANDU 1 μM, control = 100
  increase of the expression level of the collagen gene (COL1A1 mRNA) compared to the control: approximately two-fold
OLANDU 10 μM, control = 100, highest expression-promoting action
  increase of the expression level of the collagen gene (COL1A1 mRNA) compared to the control: more than three-fold
OLANDU 1, 5, 10, 50 and 100 μM, 24 hours culture (FIG. 11)
  expression level of the collagen gene (COL1A1 mRNA) compared to the control without OLANDU: greatly increased the expression level of the collagen gene
